Measured values reported in paper PMC2442904 (British Journal of Pharmacology, 2008).
pIC50: −log10 of the molar value.

Target: thioredoxin-1 (Trx) (Homo sapiens, UniProt P10599)
Assay: insulin reduction assay with pure human Trx preincubated with PMX464
Assay type: biochemical

thioredoxin-1 (Trx), sequence (P10599 2-105): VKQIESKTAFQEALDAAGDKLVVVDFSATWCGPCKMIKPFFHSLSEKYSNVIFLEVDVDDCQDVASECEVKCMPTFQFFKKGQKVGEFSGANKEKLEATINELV

- pIC50: 4.70
Compound: O=C1C=CC(O)(c2nc3ccccc3s2)C=C1 [PMX464, 4-(benzothiazol-2-yl)-4-hydroxycyclohexa-2,5-dien-1-one hydrate]
